Source: patent publication US9738684B2, “N-terminally modified linear and branched polyamine conjugated peptidomimetics as antimicrobials agents” (COUNCIL OF SCIENTIFIC & INDUSTRIAL RESEARCH, priority 2015, dated 2017)
Values after ≈ are worked out from the molar mass of the structure shown.

System: methicillin resistant Staphylococcus epidermidis (ATCC 51625)
Assay: MIC, serial broth dilution
Format: cell-based
Details: MHB, 18 h, 37° C.

Row | SMILES | MIC MRSE (ATCC 51625) [ng/mL]
1 | NCCCNCCCCNCCCNC(=O)C(Cc1c[nH]c2ccccc12)NC(=O)C(Cc1c[nH]c2ccccc12)NC(=O)Cc1ccc(C(F)(F)F)cc1 (centres unmarked) [1c] | 3.5 (≈ 4.6 nM)
2 | CCCCCCCCCC(=O)NC(Cc1c[nH]c2ccccc12)C(=O)NC(Cc1c[nH]c2ccccc12)C(=O)NCCCNCCCCNCCCN (centres unmarked) [1d] | 1.7 (≈ 2.33 nM)
